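Interpolation was linear, between the two tested concentrations surrounding the appropriate level; five concentrations were tested over 48 hours in 96-well plates. The concentration for 50% growth inhibition is given as GI50. TGI: concentration producing complete growth inhibition.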
How the values were obtained:
Assay in all cases: NCI anticancer screen, dose series, 48 h
HT29 colon = system: HT29 colon
BT-549 breast = system: BT-549 breast
SK-MEL-28 melanoma = system: SK-MEL-28 melanoma
SNB-19 CNS = system: SNB-19 CNS
SF-268 CNS = system: SF-268 CNS
786-0 renal = system: 786-0 renal
NCI-H460 lung = system: NCI-H460 lung
DU-145 prostate = system: DU-145 prostate
MDA-MB-435 = system: MDA-MB-435
HCT-116 colon = system: HCT-116 colon
T-47D breast = system: T-47D breast
HOP-62 NSCLC = system: HOP-62 NSCLC
LOX IMVI melanoma = system: LOX IMVI melanoma
HL-60(TB) leukemia = system: HL-60(TB) leukemia
SW-620 colon = system: SW-620 colon
SF-295 CNS = system: SF-295 CNS
OVCAR-8 ovarian = system: OVCAR-8 ovarian
OVCAR-3 ovarian = system: OVCAR-3 ovarian
TK-10 renal = system: TK-10 renal
SNB-75 CNS = system: SNB-75 CNS
OVCAR-4 ovarian = system: OVCAR-4 ovarian
SK-OV-3 ovarian = system: SK-OV-3 ovarian
K-562 leukemia = system: K-562 leukemia
COLO 205 colon = system: COLO 205 colon
MALME-3M melanoma = system: MALME-3M melanoma
HCT-15 colon = system: HCT-15 colon
EKVX NSCLC = system: EKVX NSCLC
CAKI-1 renal = system: CAKI-1 renal
PC-3 prostate = system: PC-3 prostate
RPMI-8226 leukemia = system: RPMI-8226 leukemia
UO-31 renal = system: UO-31 renal
HOP-92 NSCLC = system: HOP-92 NSCLC
MOLT-4 leukemia = system: MOLT-4 leukemia
MCF7 breast = system: MCF7 breast
IGROV1 ovarian = system: IGROV1 ovarian
A549 NSCLC = system: A549 NSCLC
ACHN renal = system: ACHN renal
KM12 colon = system: KM12 colon
SR leukemia = system: SR leukemia
M14 melanoma = system: M14 melanoma
U251 CNS = system: U251 CNS
SK-MEL-5 melanoma = system: SK-MEL-5 melanoma
NCI/ADR-RES ovarian = system: NCI/ADR-RES ovarian
UACC-257 melanoma = system: UACC-257 melanoma
OVCAR-5 ovarian = system: OVCAR-5 ovarian
RXF 393 renal = system: RXF 393 renal
NCI-H226 lung = system: NCI-H226 lung
MDA-MB-231 breast = system: MDA-MB-231 breast
HCC-2998 colon = system: HCC-2998 colon
NCI-H23 lung = system: NCI-H23 lung
SN12C renal = system: SN12C renal
HS 578T breast = system: HS 578T breast
SK-MEL-2 melanoma = system: SK-MEL-2 melanoma
CCRF-CEM leukemia = system: CCRF-CEM leukemia
SF-539 CNS = system: SF-539 CNS
A498 renal = system: A498 renal
UACC-62 melanoma = system: UACC-62 melanoma
NCI-H522 lung = system: NCI-H522 lung

N#Cc1c2ccccc2c2nnc3cc(C(F)(F)F)ccc3n12
GI50 (HT29 colon): 58 µM | TGI (HT29 colon): > 100 µM | GI50 (BT-549 breast): 57.2 µM | TGI (BT-549 breast): > 100 µM | GI50 (SK-MEL-28 melanoma): 92.3 µM | TGI (SK-MEL-28 melanoma): > 100 µM | GI50 (SNB-19 CNS): > 100 µM | TGI (SNB-19 CNS): > 100 µM | GI50 (SF-268 CNS): 19.2 µM | TGI (SF-268 CNS): > 100 µM | GI50 (786-0 renal): > 100 µM | TGI (786-0 renal): > 100 µM | GI50 (NCI-H460 lung): 37.1 µM | TGI (NCI-H460 lung): > 100 µM | GI50 (DU-145 prostate): 58.4 µM | TGI (DU-145 prostate): > 100 µM | GI50 (MDA-MB-435): 31.4 µM | TGI (MDA-MB-435): > 100 µM | GI50 (HCT-116 colon): 25.4 µM | TGI (HCT-116 colon): > 100 µM | GI50 (T-47D breast): > 100 µM | TGI (T-47D breast): > 100 µM | GI50 (HOP-62 NSCLC): 27.6 µM | TGI (HOP-62 NSCLC): 58.3 µM | GI50 (LOX IMVI melanoma): 21.7 µM | TGI (LOX IMVI melanoma): 62.9 µM | GI50 (HL-60(TB) leukemia): 58.6 µM | TGI (HL-60(TB) leukemia): > 100 µM | GI50 (SW-620 colon): > 100 µM | TGI (SW-620 colon): > 100 µM | GI50 (SF-295 CNS): 96.3 µM | TGI (SF-295 CNS): > 100 µM | GI50 (OVCAR-8 ovarian): 68.6 µM | TGI (OVCAR-8 ovarian): > 100 µM | GI50 (OVCAR-3 ovarian): 79.9 µM | TGI (OVCAR-3 ovarian): > 100 µM | GI50 (TK-10 renal): 99.8 µM | TGI (TK-10 renal): > 100 µM | GI50 (SNB-75 CNS): > 100 µM | TGI (SNB-75 CNS): > 100 µM | GI50 (OVCAR-4 ovarian): 55.5 µM | TGI (OVCAR-4 ovarian): > 100 µM | GI50 (SK-OV-3 ovarian): > 100 µM | TGI (SK-OV-3 ovarian): > 100 µM | GI50 (K-562 leukemia): 48.3 µM | TGI (K-562 leukemia): > 100 µM | GI50 (COLO 205 colon): 37.4 µM | TGI (COLO 205 colon): > 100 µM | GI50 (MALME-3M melanoma): > 100 µM | TGI (MALME-3M melanoma): > 100 µM | GI50 (HCT-15 colon): 93.4 µM | TGI (HCT-15 colon): > 100 µM | GI50 (EKVX NSCLC): > 100 µM | TGI (EKVX NSCLC): > 100 µM | GI50 (CAKI-1 renal): 38.6 µM | TGI (CAKI-1 renal): > 100 µM | GI50 (PC-3 prostate): 48.1 µM | TGI (PC-3 prostate): > 100 µM | GI50 (RPMI-8226 leukemia): 55.1 µM | TGI (RPMI-8226 leukemia): > 100 µM | GI50 (UO-31 renal): 70.3 µM | TGI (UO-31 renal): > 100 µM | GI50 (HOP-92 NSCLC): 51.5 µM | TGI (HOP-92 NSCLC): > 100 µM | GI50 (MOLT-4 leukemia): 34.7 µM | TGI (MOLT-4 leukemia): > 100 µM | GI50 (MCF7 breast): 10.7 µM | TGI (MCF7 breast): 80.9 µM | GI50 (IGROV1 ovarian): 46.9 µM | TGI (IGROV1 ovarian): > 100 µM | GI50 (A549 NSCLC): 36.3 µM | TGI (A549 NSCLC): > 100 µM | GI50 (ACHN renal): 25.7 µM | TGI (ACHN renal): > 100 µM | GI50 (KM12 colon): > 100 µM | TGI (KM12 colon): > 100 µM | GI50 (SR leukemia): 31.3 µM | TGI (SR leukemia): > 100 µM | GI50 (M14 melanoma): 29.7 µM | TGI (M14 melanoma): > 100 µM | GI50 (U251 CNS): 51.2 µM | TGI (U251 CNS): > 100 µM

COc1c(O)cc2oc3cc(O)c(CC=C(C)C)c(O)c3c(=O)c2c1C/C=C(\C)CCC=C(C)C
GI50 (HT29 colon): 6.34 µM | TGI (HT29 colon): 12.4 µM | GI50 (SK-MEL-5 melanoma): 5.62 µM | TGI (SK-MEL-5 melanoma): 10.2 µM | GI50 (NCI/ADR-RES ovarian): 5.99 µM | TGI (NCI/ADR-RES ovarian): 11.4 µM | GI50 (SK-MEL-28 melanoma): 5.4 µM | TGI (SK-MEL-28 melanoma): 10.3 µM | GI50 (SNB-19 CNS): 6.51 µM | TGI (SNB-19 CNS): 12 µM | GI50 (UACC-257 melanoma): 5.63 µM | TGI (UACC-257 melanoma): 10.5 µM | GI50 (SF-268 CNS): 5.56 µM | TGI (SF-268 CNS): 10 µM | GI50 (OVCAR-5 ovarian): 5.19 µM | TGI (OVCAR-5 ovarian): 10.6 µM | GI50 (786-0 renal): 6.36 µM | TGI (786-0 renal): 11.6 µM | GI50 (RXF 393 renal): 5.53 µM | TGI (RXF 393 renal): 10.2 µM | GI50 (NCI-H226 lung): 6.18 µM | TGI (NCI-H226 lung): 11.2 µM | GI50 (NCI-H460 lung): 5.66 µM | TGI (NCI-H460 lung): 10.2 µM | GI50 (MDA-MB-231 breast): 5.61 µM | TGI (MDA-MB-231 breast): 11.2 µM | GI50 (HCC-2998 colon): 7.06 µM | TGI (HCC-2998 colon): 13.6 µM | GI50 (DU-145 prostate): 5.98 µM | TGI (DU-145 prostate): 10.5 µM | GI50 (MDA-MB-435): 5.77 µM | TGI (MDA-MB-435): 10.9 µM | GI50 (HCT-116 colon): 5.24 µM | TGI (HCT-116 colon): 10.4 µM | GI50 (HOP-62 NSCLC): 5.66 µM | TGI (HOP-62 NSCLC): 10.1 µM | GI50 (NCI-H23 lung): 6.6 µM | TGI (NCI-H23 lung): 14.8 µM | GI50 (SN12C renal): 5.68 µM | TGI (SN12C renal): 10.9 µM | GI50 (LOX IMVI melanoma): 5.49 µM | TGI (LOX IMVI melanoma): 10.5 µM | GI50 (HL-60(TB) leukemia): 7.69 µM | TGI (HL-60(TB) leukemia): 17.7 µM | GI50 (SW-620 colon): 5.8 µM | TGI (SW-620 colon): 10.4 µM | GI50 (SF-295 CNS): 4.88 µM | TGI (SF-295 CNS): 9.6 µM | GI50 (OVCAR-8 ovarian): 5.45 µM | TGI (OVCAR-8 ovarian): 10.6 µM | GI50 (HS 578T breast): 7.11 µM | TGI (HS 578T breast): 16.7 µM | GI50 (OVCAR-3 ovarian): 5.31 µM | TGI (OVCAR-3 ovarian): 9.71 µM | GI50 (TK-10 renal): 8.15 µM | TGI (TK-10 renal): 15.5 µM | GI50 (SNB-75 CNS): 3.58 µM | TGI (SNB-75 CNS): 7.46 µM | GI50 (OVCAR-4 ovarian): 5.41 µM | TGI (OVCAR-4 ovarian): 9.84 µM | GI50 (SK-OV-3 ovarian): 5.86 µM | TGI (SK-OV-3 ovarian): 10.4 µM | GI50 (SK-MEL-2 melanoma): 6.46 µM | TGI (SK-MEL-2 melanoma): 12.1 µM | GI50 (CCRF-CEM leukemia): 11.7 µM | TGI (CCRF-CEM leukemia): 32.5 µM | GI50 (K-562 leukemia): 7.29 µM | TGI (K-562 leukemia): 16.6 µM | GI50 (SF-539 CNS): 6.11 µM | TGI (SF-539 CNS): 12 µM | GI50 (COLO 205 colon): 6.37 µM | TGI (COLO 205 colon): 11.4 µM | GI50 (A498 renal): 5.96 µM | TGI (A498 renal): 10.5 µM | GI50 (MALME-3M melanoma): 6.34 µM | TGI (MALME-3M melanoma): 12 µM | GI50 (HCT-15 colon): 5.69 µM | TGI (HCT-15 colon): 11.7 µM | GI50 (UACC-62 melanoma): 5.51 µM | TGI (UACC-62 melanoma): 11.3 µM | GI50 (EKVX NSCLC): 4.89 µM | TGI (EKVX NSCLC): 9.75 µM | GI50 (CAKI-1 renal): 4.69 µM | TGI (CAKI-1 renal): 9.39 µM | GI50 (PC-3 prostate): 5.55 µM | TGI (PC-3 prostate): 11.2 µM | GI50 (RPMI-8226 leukemia): 10.6 µM | TGI (RPMI-8226 leukemia): 31.3 µM | GI50 (UO-31 renal): 4.62 µM | TGI (UO-31 renal): 8.97 µM | GI50 (HOP-92 NSCLC): 6.52 µM | TGI (HOP-92 NSCLC): 11.5 µM | GI50 (MOLT-4 leukemia): 6.11 µM | TGI (MOLT-4 leukemia): 16.3 µM | GI50 (MCF7 breast): 6.15 µM | TGI (MCF7 breast): 13.7 µM | GI50 (IGROV1 ovarian): 5.39 µM | TGI (IGROV1 ovarian): 10.4 µM | GI50 (NCI-H522 lung): 5.92 µM | TGI (NCI-H522 lung): 10.8 µM | GI50 (A549 NSCLC): 5.1 µM | TGI (A549 NSCLC): 9.64 µM | GI50 (ACHN renal): 4.98 µM | TGI (ACHN renal): 9.4 µM | GI50 (KM12 colon): 5.47 µM | TGI (KM12 colon): 9.91 µM | GI50 (SR leukemia): 5.45 µM | TGI (SR leukemia): 13.2 µM | GI50 (M14 melanoma): 6.17 µM | TGI (M14 melanoma): 12.6 µM | GI50 (U251 CNS): 5.89 µM | TGI (U251 CNS): 10.6 µM

Source: PubChem BioAssay (NCI)
